Reference: patent US10525073B2, “Method for improving kidney and/or heart function in patients with kidney disease” (MacKay Memorial Hospital, priority 2015, dated 2020)

How the values were obtained:
CKD rats [1] = experiment: Kidney fibrosis in kidney samples of CKD rats; assay type: in vivo, Sprague Dawley rats
Description: Sprague Dawley rats (7 weeks old) were kept in pathogen-free environment under 12:12 light-dark cycle with food and water provided ad libitum, ambient temperature and relative humidity were respectively set at 24±2° C. and 50±20%. All procedures involving animal studies of the present disclosure comply with the “Guideline for the Care and Use of Laboratory Animals” issued by The Chinese-Taipei Society of Laboratory Animal Sciences. SD rats (about 10 weeks old) scheduled to undergo 5/6 nephrectomy or sham surgery were anesthetized by Zoletil 50/Xylazine (6 mg/1.3 mg/Kg, i.p.). Then, the left kidney was exposed, and the upper and lower poles were tied with a suture line, followed by right nephrectomy. The peritoneum and skin were then sutured, and the animals were returned to their individual cages. For animals underwent sham surgery, the left kidney was exposed in similar manner, but was then placed back into the abdominal cavity without further treatment, peritoneum and skin were then sutured. Two weeks after sham or 5/6 nephrectomy surgery, the animals were subjected to a 24-hour urine collection and non-invasive tail blood pressure measurement every 4 weeks. Four weeks after the surgery, rats underwent 5/6 nephrectomy or shame surgery were randomly assigned into two groups, i.e., the control and the telbivudine groups, in which the control group received saline treatment, and rats in the telbivudine group received telbivudine (10 mg/mL/Kg) treatment for 8 or 12 weeks. […] Blood and urine samples were respectively collected on designated days and analyzed for the levels of blood urine nitrogen (BUN), serum creatine (CR), and hepatic enzymes (i.e., alanine aminotransferase (ALT) and aspartate aminotransferase (AST)). Heart function was determined by monitoring the changes in diastolic parameter-Tissue Velocity Imaging ([…] ratio, and the strain in cardia muscle (C_strain), left ventrical mass ([…]). Animals were sacrificed after the experiments were finished, and kidney biopsy samples were obtained.

CKD rats [2] = experiment: Cardiac muscle strain measurement by heart ultrasound in CKD rats; assay type: in vivo, Sprague Dawley rats; details: vs control animals
Description: SD rats (about 10 weeks old) scheduled to undergo 5/6 nephrectomy or sham surgery were anesthetized by Zoletil 50/Xylazine (6 mg/1.3 mg/Kg, i.p.). Then, the left kidney was exposed, and the upper and lower poles were tied with a suture line, followed by right nephrectomy. The peritoneum and skin were then sutured, and the animals were returned to their individual cages. For animals underwent sham surgery, the left kidney was exposed in similar manner, but was then placed back into the abdominal cavity without further treatment, peritoneum and skin were then sutured. Two weeks after sham or 5/6 nephrectomy surgery, the animals were subjected to a 24-hour urine collection and non-invasive tail blood pressure measurement every 4 weeks. […] Once the animal became unconscious, it was then connected to heart ultrasound machine (Vivid i, General Electric Company, US) and heart function paraments including changes in diastolic parameter-Tissue Velocity Imaging (TVI_V) and E/A ratio, the strain in cardia muscle (C_strain), and left ventrical mass ([…]) were respectively measured. […] Blood and urine samples were respectively collected on designated days and analyzed for the levels of blood urine nitrogen (BUN), serum creatine (CR), and hepatic enzymes (i.e., alanine aminotransferase (ALT) and aspartate aminotransferase (AST)). […]

CKD rats [3] = experiment: Blood urine nitrogen (BUN) and serum creatine (CR) levels in 5/6 nephrectomy CKD rats; assay type: in vivo, Sprague Dawley rats; details: 5/6 nephrectomy rats
Description: Sprague Dawley rats (7 weeks old) were kept in pathogen-free environment under 12:12 light-dark cycle with food and water provided ad libitum, ambient temperature and relative humidity were respectively set at 24±2° C. and 50±20%. All procedures involving animal studies of the present disclosure comply with the “Guideline for the Care and Use of Laboratory Animals” issued by The Chinese-Taipei Society of Laboratory Animal Sciences. SD rats (about 10 weeks old) scheduled to undergo 5/6 nephrectomy or sham surgery were anesthetized by Zoletil 50/Xylazine (6 mg/1.3 mg/Kg, i.p.). Then, the left kidney was exposed, and the upper and lower poles were tied with a suture line, followed by right nephrectomy. The peritoneum and skin were then sutured, and the animals were returned to their individual cages. For animals underwent sham surgery, the left kidney was exposed in similar manner, but was then placed back into the abdominal cavity without further treatment, peritoneum and skin were then sutured. Two weeks after sham or 5/6 nephrectomy surgery, the animals were subjected to a 24-hour urine collection and non-invasive tail blood pressure measurement every 4 weeks. Four weeks after the surgery, rats underwent 5/6 nephrectomy or shame surgery were randomly assigned into two groups, i.e., the control and the telbivudine groups, in which the control group received saline treatment, and rats in the telbivudine group received telbivudine (10 mg/mL/Kg) treatment for 8 or 12 weeks. Animals were then sacrificed, and kidney and heart biopsy samples were obtained. In this example, to evaluate the therapeutic function of telbivudine, animals were first subject to 5/6 nephrectomy to induce in vivo kidney failure before being treated with telbivudine. 5/6 nephrectomy is a procedure in which one kidney of a test animal is removed and 2/3 of the remaining kidney is ablated, thereby mimics the progressive renal failure after loss of renal mass in humans. Briefly, approximately 50% of the remaining kidney of the rat was removed by polar excision 1-2 weeks after uni-nephrectomy. Then, the animals were randomly assigned to two groups, the telbivudine group and the control group. […] Blood and urine samples were respectively collected on designated days and analyzed for the levels of blood urine nitrogen (BUN), serum creatine (CR), and hepatic enzymes (i.e., alanine aminotransferase (ALT) and aspartate aminotransferase (AST)). Heart function was determined by monitoring the changes in diastolic parameter-Tissue Velocity Imaging ([…] ratio, and the strain in cardia muscle (C_strain), left ventrical mass ([…]). Animals were sacrificed after the experiments were finished, and kidney biopsy samples were obtained.

[4] = system: IL-6 and COL-1-A1 in heart tissue of CKD rats; experiment: Western blot of IL-6 and COL-1-A1 in heart tissue of CKD rats; assay type: in vivo, Sprague Dawley rats
Description: (§1) SD rats (about 10 weeks old) scheduled to undergo 5/6 nephrectomy or sham surgery were anesthetized by Zoletil 50/Xylazine (6 mg/1.3 mg/Kg, i.p.). Then, the left kidney was exposed, and the upper and lower poles were tied with a suture line, followed by right nephrectomy. The peritoneum and skin were then sutured, and the animals were returned to their individual cages. […] Two weeks after sham or 5/6 nephrectomy surgery, the animals were subjected to a 24-hour urine collection and non-invasive tail blood pressure measurement every 4 weeks. […]
(§2) 5/6 nephrectomy is a procedure in which one kidney of a test animal is removed and 2/3 of the remaining kidney is ablated, thereby mimics the progressive renal failure after loss of renal mass in humans. […] Blood and urine samples were respectively collected on designated days and analyzed for the levels of blood urine nitrogen (BUN), serum creatine (CR), and hepatic enzymes (i.e., alanine aminotransferase (ALT) and aspartate aminotransferase (AST)). Heart function was determined by monitoring the changes in diastolic parameter—Tissue Velocity Imaging (TVI_V), E/A ratio, and the strain in cardia muscle (C_strain), left ventrical mass (LVMASS). […]

[5] = system: IL-6, TGF-β, TIMP1 and COL-1-A1 in kidney tissue of CKD rats; experiment: Western blot of inflammatory proteins in kidney tissue of CKD rats; assay type: in vivo, Sprague Dawley rats
Description: (§3) SD rats (about 10 weeks old) scheduled to undergo 5/6 nephrectomy or sham surgery were anesthetized by Zoletil 50/Xylazine (6 mg/1.3 mg/Kg, i.p.). Then, the left kidney was exposed, and the upper and lower poles were tied with a suture line, followed by right nephrectomy. The peritoneum and skin were then sutured, and the animals were returned to their individual cages. […] Two weeks after sham or 5/6 nephrectomy surgery, the animals were subjected to a 24-hour urine collection and non-invasive tail blood pressure measurement every 4 weeks. Four weeks after the surgery, rats underwent 5/6 nephrectomy or shame surgery were randomly assigned into two groups, i.e., the control and the telbivudine groups, in which the control group received saline treatment, and rats in the telbivudine group received telbivudine (10 mg/mL/Kg) treatment for 8 or 12 weeks. Animals were then sacrificed, and kidney and heart biopsy samples were obtained.
For protein identification, 30 μg nuclear extracted protein was loaded in each lane of the SDS-PAGE gel (8%) and separated by electrophoresis. The separated proteins were then electro-transferred to polyvinylidene fluoride (PVDF) membranes (GE Healthcare Bio-Sciences, Little Chalfont, UK), and blocked with 5% fat-free skim milk in TRIS-buffered saline containing 0.01% Tween-20 for 60 min at room temperature. The membrane was then incubated with rabbit polyclonalanti-IL-6, TGF-β, TIMP-1 and COL1-1 (diluted 1:1000 in PBS/5% skim milk; Novus. Biologicals) antibodies overnight at 4, respectively. HRP conjugated anti-rabbit IgG (Promega) was then used as secondary antibody. Immunoreactive protein was visualized by the chemiluminescence protocol (ECL, GE HealthcareBio-Sciences). Anti-actin rabbit polyclonal antibody (1:1000; Sigma-Aldrich) was used for calibration.
as §2, with “humans. Briefly, approximately 50% of the remaining kidney of the rat was removed by polar excision 1-2 weeks after uni-nephrectomy. Then, the animals were randomly assigned to two groups, the telbivudine group and the control group.” for “humans.”

CKD rats [6] = experiment: Uremic toxins (indoxyl sulfate, P-cresyl sulfate) in serum of CKD rats; assay type: in vivo, Sprague Dawley rats; details: serum collected from CKD rats
Description: as §3
(§4) 5/6 nephrectomy is a procedure in which one kidney of a test animal is removed and 2/3 of the remaining kidney is ablated, thereby mimics the progressive renal failure after loss of renal mass in humans. Briefly, approximately 50% of the remaining kidney of the rat was removed by polar excision 1-2 weeks after uni-nephrectomy. Then, the animals were randomly assigned to two groups, the telbivudine group and the control group. Rats in the telbivudine group were orally fed with telbivudine (at a dosage of 100 mg/Kg) for 4, 8 or 12 weeks, while the animals in the control group were given just the water. Blood and urine samples were respectively collected on designated days and analyzed for the levels of blood urine nitrogen (BUN), serum creatine (CR), and hepatic enzymes (i.e., alanine aminotransferase (ALT) and aspartate aminotransferase (AST)). Heart function was determined by monitoring the changes in diastolic parameter—Tissue Velocity Imaging (TVI_V), E/A ratio, and the strain in cardia muscle (C_strain), left ventrical mass (LVMASS). Animals were sacrificed after the experiments were finished, and kidney biopsy samples were obtained.
Indoxyl sulfate (IS) and P-cresyl sulfate (PCS) are uremic toxins that accumulate in the serum of CKD patients, and are known factors for causing heart problems in the CKD subjects.

[7] = system: IL-6, TGF-β, TIMP1 and COL-1-A1 in kidney tissue of CKD rats; experiment: Quantitative RT-PCR of inflammatory genes in kidney tissue of CKD rats; assay type: in vivo, Sprague Dawley rats
Description: as §3
Total RNA was extracted from fresh frozen renal and heart tissues using the Trizol Reagent (Life Technologies), according to the manufacturer protocol. Briefly, renal cortex or heart tissue (150 mg) was homogenized with 1 ml Trizol, and RNA-containing aqueous phase was obtained by centrifugation. Following the precipitation of RNA by centrifugation with 0.5 volume isopropanol and purification with 75% ethanol, the extracted total RNA was dissolved in 80 μL nuclease-free deionized distilled water and stored at −20° C. The concentration and purity of RNA were determined by Nanodrop Spectrophotometer (Thermo Scientific). First-strand cDNAs were synthesized from template RNA (1 μg) using Transcriptor First Strand cDNA Synthesis Kit (Roche), according to the manufacturer's protocol. Real-time PCR was performed using 2 μL template in a 20-μL reaction containing 1 μM of each primer and 10 μLLightCyclerFastStartUniversal SYBR Green Master (ROX) (Roche). […]
as §2

CKD rats [8] = experiment: Heart fibrosis in CKD rats; assay type: in vivo, Sprague Dawley rats; details: heart tissue of CKD rats, telbivudine-treated vs untreated (FIG. 5)
Description: as §1, §2

[9] = system: IL-6 and COL-1-A1 in heart tissue of CKD rats; experiment: Quantitative RT-PCR of IL-6 and COL-1-A1 in heart tissue of CKD rats; assay type: in vivo, Sprague Dawley rats
Description: as §1
Total RNA was extracted from fresh frozen renal and heart tissues using the Trizol Reagent (Life Technologies), according to the manufacturer protocol. […] The concentration and purity of RNA were determined by Nanodrop Spectrophotometer (Thermo Scientific). […]
as §2, with “(AST)).” for “(AST)). Heart function was determined by monitoring the changes in diastolic parameter—Tissue Velocity Imaging (TVI_V), E/A ratio, and the strain in cardia muscle (C_strain), left ventrical mass (LVMASS).”

CKD rats [10] = system: CKD rats; design: species or system Sprague Dawley rats; details: rat, in vivo
Text: as §4
In this example, the effect of telbivudine on liver function was investigated.

[11] = telbivudine orally 100 mg/Kg for 8 weeks, vs untreated CKD
[12] = telbivudine orally 100 mg/Kg for 12 weeks

SMILES: Cc1cn([C@@H]2C[C@@H](O)[C@H](CO)O2)c(=O)[nH]c1=O [telbivudine]
- decrease of extent of kidney fibrosis (CKD rats [1]; telbivudine treatment for 8 weeks (FIG. 2 panel D)): about 62.4%
- decrease of extent of kidney fibrosis (CKD rats [1]; telbivudine treatment for 12 weeks (FIG. 2 panel D)): ~79.2%
- extent of kidney fibrosis (photographs) (CKD rats [1]; telbivudine-treated vs untreated (FIG. 2 panel B vs C)): significantly reduced
- C-strain values (strain in cardia muscle) (CKD rats [2]; CKD animals treated with telbivudine for 8 weeks): significant improvement
- C-strain values (strain in cardia muscle) (CKD rats [2]; CKD animals treated with telbivudine for 12 weeks): significant improvement
- level of BUN (blood urine nitrogen) (CKD rats [3]; [11]): significant reduction
- level of CR (serum creatine) (CKD rats [3]; [11]): significant reduction
- level of BUN (blood urine nitrogen) (CKD rats [3]; [12]): most significant
- level of CR (serum creatine) (CKD rats [3]; [12]): most significant
- protein level of COL-1-A1 [4]: markedly reduced
- protein level of IL-6 [4]: markedly reduced
- protein level of COL-1-A1 [5]: reduced
- protein level of IL-6 [5]: reduced
- protein level of TGF-β [5]: reduced
- protein level of TIMP1 [5]: reduced
- free level of Indoxyl sulfate (IS) (CKD rats [6]): effectively reduced
- free level of P-cresyl sulfate (PCS) (CKD rats [6]): effectively reduced
- total level of Indoxyl sulfate (IS) (CKD rats [6]): effectively reduced
- total level of P-cresyl sulfate (PCS) (CKD rats [6]): effectively reduced
- mRNA level of COL-1-A1 [7]: reduced
- mRNA level of IL-6 [7]: reduced
- mRNA level of TGF-β [7]: reduced
- mRNA level of TIMP1 [7]: reduced
- extent of fibrotic tissues in heart (CKD rats [8]): markedly reduced
- mRNA level of COL-1-A1 [9]: markedly reduced
- mRNA level of IL-6 [9]: markedly reduced
- level of alanine aminotransferase (ALT) (CKD rats [10]): remained relatively the same
- level of aspartate aminotransferase (AST) (CKD rats [10]): remained relatively the same
- toxic effects toward liver function (CKD rats [10]): does not possess any toxic effects
